Assay: xn = mol fraction of the nth substance listed
Conditions: 93.2 kPa

CC(=O)[O-].CCCC[NH3+] + CCO
Conditions	speed of sound, 293.15 K [m/s]	speed of sound, 298.15 K [m/s]	speed of sound, 303.15 K [m/s]	speed of sound, 308.15 K [m/s]	speed of sound, 313.15 K [m/s]	viscosity, 293.15 K [mPa·s]	viscosity, 298.15 K [mPa·s]	viscosity, 303.15 K [mPa·s]	viscosity, 308.15 K [mPa·s]	viscosity, 313.15 K [mPa·s]
x1 = 0.0501	1196.2	1179.2	–	1145.8	–	1.96	1.76	–	1.44	–
x1 = 0.0992	1225.1	1208.3	1191.7	1175.2	1158.9	2.97	2.65	2.37	2.13	1.93
x1 = 0.15	–	1234.9	1218.5	1202.1	–	–	3.94	3.5	3.11	–
x1 = 0.2001	–	1258.4	1242.1	1225.9	–	–	5.77	5.08	4.49	–
x1 = 0.2511	1296.4	1280.1	1263.9	1247.8	1231.9	9.6	8.32	7.24	6.34	5.58
x1 = 0.3001	–	1299	1282.9	1266.9	–	–	11.6	10	8.67	–
x1 = 0.35	1332.8	1316.6	1300.6	–	1269	19.2	16.3	13.9	–	10.3
x1 = 0.3999	1349.1	–	1317.1	–	1285.6	26.7	–	18.9	–	13.9
x1 = 0.4483	1363.2	1347.1	1331.2	1315.5	–	36.5	30.3	25.4	21.4	–
x1 = 0.4987	–	1361	1345.2	1329.5	1314.1	–	41.2	34.1	28.4	24
x1 = 0.5503	1390.1	–	1358.3	1342.7	1327.3	69.5	–	45.9	37.9	31.6
x1 = 0.6002	1402	–	1370.2	1354.6	1339.2	94	–	60.7	49.5	40.9
x1 = 0.6511	1413.7	1397.6	1381.7	1366.1	–	128	101.1	80.6	65	–
x1 = 0.7008	–	–	1392.4	1376.8	1361.4	–	–	106	84.2	68.1
x1 = 0.7495	–	–	1402.4	1386.7	1371.3	–	–	138	109	86.6
x1 = 0.7988	–	1428.3	1412.2	1396.3	1380.9	–	235	180	140	110
x1 = 0.8496	–	–	1421.9	–	1390.4	–	–	238	–	141
x1 = 0.9015	1466	1448.3	1431.5	1415.3	1399.6	585	424	313	236	181
x1 = 0.9493	1476.4	1457.8	1440.5	1423.9	–	797	566	412	305	–
x1 = 1	1488	1468.3	–	1433	1416.7	1103	765	–	397	295
